Results reported in patent publication US4358456A, “Antipsychotic piperidinomethyl-indole derivatives” (John Wyeth & Brother Limited, priority 1980, dated 1982).

Columns and labels:
dopamine receptors [1] = experiment: Test 3 Inhibition of p-chloroamphetamine hyperactivity; format: in vivo, mice; details: for ED50, inhibition of pCA induced hyperactivity: Table 2, mice
Protocol: Test 3 Inhibition of p-chloroamphetamine hyperactivity
C=mean activity of control groups 10-30 minutes post pCA.
T=mean activity of treated groups 10-30 minutes post pCA.
This test is used as an in vivo screen for detection of 5-hydroxytryptamineuptake inhibitors.

dopamine receptors [2] = experiment: Test 1 Inhibition of Amphetamine Induced Stereotypy; format: in vivo, rats; details: for ED50, inhibition of amphetamine induced stereotypy: rats
Source text: Test 1 Inhibition of Amphetamine Induced Stereotypy

[3] = Test 4 Increase in Halothane Induced Sleep Time (sedative potential); format: in vivo, mice; details: for ED50, increase in halothane induced sleep time: mice, one hour before 3% halothane, dose increasing duration of loss of righting reflex by 50%
Protocol: Test 4 Increase in Halothane Induced Sleep Time
Groups of 6 mice received the test compounds or the requisite volume of vehicle p.o. one hour before being placed in a perspex container. A gas mixture containing 3% halothane in oxygen was passed through this container for 5 minutes. Next the mice were removed and placed on their backs and the latency to the restoration of the righting reflex noted.
The doses shown are those calculated to increase the duration of halothane induced loss of righting reflex by 50%.

dopamine receptors [4] = experiment: Test 2 Inhibition of Apomorphine Induced Climbing; format: in vivo, mice; details: Table I; for ED50, inhibition of apomorphine induced climbing: mice, compound one hour before 10 mg/kg apomorphine, dose reducing climbing score by 50%
dopamine receptors [5] = experiment: Dopamine antagonism, overall statement on Tests 1, 2 and 3; details: for antagonist activity at dopaminergic reception (in words): results of Table 2, Tests 1 and 3, 50 mg/kg for Examples 6 and 7
[6] = Test 5 Increase in Fall Rate From Revolving Drum (ability to induce extrapyramidal effects); format: in vivo, mice; details: for TD50 at 1 h: mouse, in vivo, po, mice, one hour after dosing, dose inducing fall rate half of maximum theoretically possible, read-out: ED50, increase in fall rate from revolving drum
Protocol: Test 5 Increase in Fall Rate From Revolving Drum
Groups of 8 mice were trained to walk on a slowly revolving horizontal drum prior to dosing with various concentrations of the test drugs or vehicle. An hour later the mice were replaced on the drum and the number of times each animal fell during the following 3 minutes was noted (mice were replaced immediately after each fall). […] The doses shown are those calculated to induce a fall rate half that of the maximum theoretically possible.

[7] = Table I, compound one hour before 5 mg/kg d-amphetamine

Row | Structure (SMILES) | ED50, inhibition of pCA induced hyperactivity (dopamine receptors [1]; 20 mg/kg pCA ip) [mg/kg p.o.] | ED50, inhibition of amphetamine induced stereotypy (dopamine receptors [2]; Table 2, 5 mg/kg d-amphetamine) [mg/kg p.o.] | ED50, inhibition of amphetamine induced stereotypy (dopamine receptors [2]; [7]) [mg/kg p.o.] | ED50, increase in halothane induced sleep time ([3]; Table I) [mg/kg p.o.] | ED50, inhibition of apomorphine induced climbing (dopamine receptors [4]) [mg/kg p.o.] | antagonist activity at dopaminergic reception (in words) (dopamine receptors [5]) | TD50 at 1 h ([6]; Table I) [mg/kg] | further results
1 | OC1(c2ccc(Cl)cc2)CCN(Cc2c[nH]c3ccccc23)CC1 [Example 1, 1-(Indol-3-ylmethyl)-4-hydroxy-4-(p-chlorophenyl)piperidine] | 10 | 25 | 25 | 200 | 20 | both show activity | 50 | A/B (ED50 Example 1 / ED50 Haloperidol), p-chloro amphetamine hyperactivity (dopamine receptors [1]; Table I, ratio to haloperidol): 33; A/B (ED50 Example 1 / ED50 Haloperidol), amphetamine induced stereotypy (dopamine receptors [2]; Table I, ratio to haloperidol): 36; A/B (ED50 Example 1 / ED50 Haloperidol), halothane induced sleep time ([3]; Table I, ratio to haloperidol): 1000; selectivity ratio ([3]; mouse, in vivo, po, ratio of Test 4 dose to doses in Tests 1-3, read-out: dose prolonging halothane-induced sleep relative to doses required to inhibit dopaminergic responses): 8 to 20; sedative potential compared with haloperidol (in words) ([3]; versus haloperidol): lower than that of haloperidol; A/B (ED50 Example 1 / ED50 Haloperidol), apomorphine induced climbing (dopamine receptors [4]; ratio to haloperidol): 40; dopamine antagonist potency compared with haloperidol (in words) (dopamine receptors [5]; Tests 1, 2 and 3, versus haloperidol): less potent dopamine antagonist than haloperidol; relative potency of Examples 1 and 2 (in words) (dopamine receptors [5]; results of Table 2, Example 1 versus Example 2): the more potent; A/B (ED50 Example 1 / ED50 Haloperidol), fall rate from revolving drum ([6]; Table I, ratio to haloperidol): 56; unwanted extrapyramidal effects compared with haloperidol (in words) ([6]; versus haloperidol): exhibits an advantage with regard to unwanted extrapyramidal effects
2 | OC1(c2ccccc2)CCN(Cc2c[nH]c3ccccc23)CC1 [Example 2, 1-(Indol-3-ylmethyl)-4-hydroxy-4-phenylpiperidine] | 32.6 |  |  |  |  | both show activity |  | 
3 | OC1(c2ccccc2)CCN(CCc2c[nH]c3ccccc23)CC1 [Example 6, 1-(2-(Indol-3-yl)ethyl)-4-hydroxy-4-phenylpiperidine, reference compound] | > 50 | > 50 |  |  |  | neither of the compounds of Examples 6 and 7 posses significant antagonist activity |  | 
4 | OC1(c2ccc(Cl)cc2)CCN(CCc2c[nH]c3ccccc23)CC1 [Example 7, 1-(2-(Indol-3-yl)ethyl)-4-(p-chlorophenyl)-4-hydroxypiperidine, reference compound] | > 50 | > 50 |  |  |  | neither of the compounds of Examples 6 and 7 posses significant antagonist activity |  | 
5 | O=C(CCCN1CCC(O)(c2ccc(Cl)cc2)CC1)c1ccc(F)cc1 [Haloperidol, haloperidol, reference compound] |  |  | 0.7 | 0.2 | 0.5 |  | 0.9 | ED50, inhibition of p-chloro amphetamine hyperactivity (dopamine receptors [1]; Table I, female mice, 20 mg/kg pCA ip, activity 10-30 minutes post pCA): 0.3 mg/kg p.o.; dose prolonging halothane-induced sleep compared with doses inhibiting dopaminergic responses (in words) ([3]; Test 4 versus Tests 1-3): prolongs halothane-induced sleep at doses lower than those required to ihibit dopaminergic responses
